Data taken from patent US9139557B2, “Carboxamide compounds and their use as calpain inhibitors” (Abbott GmbH & Co. KG, priority 2006, dated 2015).

Tests used:
Type in all cases: biochemical
cathepsin L = molecular target: T1, cathepsin L (Homo sapiens, UniProt P07711); experiment: Cathepsin L enzyme inhibition in vitro (kinetic fluorescence assay); details: Ki(cathepsin L)/Ki(calpain) ratio
T1 construct: cathepsin L—isolated from human liver; purchased Calbiochem 219402; host or cells: human liver (tissue isolate)
T1 sequence (P07711 114-333): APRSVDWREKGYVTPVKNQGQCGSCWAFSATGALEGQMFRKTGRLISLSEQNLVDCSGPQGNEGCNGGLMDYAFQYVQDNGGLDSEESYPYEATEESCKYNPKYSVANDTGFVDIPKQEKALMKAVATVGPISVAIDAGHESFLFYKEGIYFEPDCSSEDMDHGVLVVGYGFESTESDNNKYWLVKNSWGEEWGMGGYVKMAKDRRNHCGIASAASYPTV
Method in brief: (§1)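 Kinetic fluorescence (ex 390/em 460 nm), RT. Calpain-I: 20 nM erythrocyte-derived, 100 μM Suc-Leu-Tyr-AMC, imidazole/CaCl2, pH 7.3. Cathepsins, pH 6.0 MES/EDTA/cysteine: B 0.25 nM liver, 100 μM Z-Phe-Arg-AMC; L 1 nM liver, 2 μM Z-Phe-Arg-AMC; S 0.5 nM recombinant, 20 μM Z-Val-Val-Arg-AMC. Cheng-Prusoff Ki, mean of 2–4 curves.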

cathepsin S = molecular target: T2, cathepsin S (Homo sapiens, UniProt P25774); experiment: Cathepsin S enzyme inhibition in vitro (kinetic fluorescence assay); details: Ki(cathepsin S)/Ki(calpain) ratio
T2 construct: purchased Calbiochem 219343; host or cells: E. coli
T2 sequence (P25774 115-331): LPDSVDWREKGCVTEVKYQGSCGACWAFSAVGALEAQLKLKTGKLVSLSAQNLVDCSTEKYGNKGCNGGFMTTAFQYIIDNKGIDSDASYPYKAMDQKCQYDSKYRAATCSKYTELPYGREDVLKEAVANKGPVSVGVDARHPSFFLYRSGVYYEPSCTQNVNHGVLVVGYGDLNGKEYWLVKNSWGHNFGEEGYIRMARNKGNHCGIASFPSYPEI
Method in brief: as §1

cathepsin B = molecular target: T3, cathepsin B (Homo sapiens, UniProt P07858); experiment: Cathepsin B enzyme inhibition in vitro (kinetic fluorescence assay); details: Ki(cathepsin B)/Ki(calpain) ratio
T3 construct: cathepsin B—isolated from human liver; purchased Calbiochem 219362; host or cells: human liver (tissue isolate)
Method in brief: as §1

cathepsin K = molecular target: T4, cathepsin K (Homo sapiens, UniProt P43235); experiment: Cathepsin K enzyme inhibition in vitro (kinetic fluorescence assay); details: Ki(cathepsin K)/Ki(calpain) ratio
T4 construct: purchased Calbiochem 342001; host or cells: E. coli
T4 sequence (P43235 115-329): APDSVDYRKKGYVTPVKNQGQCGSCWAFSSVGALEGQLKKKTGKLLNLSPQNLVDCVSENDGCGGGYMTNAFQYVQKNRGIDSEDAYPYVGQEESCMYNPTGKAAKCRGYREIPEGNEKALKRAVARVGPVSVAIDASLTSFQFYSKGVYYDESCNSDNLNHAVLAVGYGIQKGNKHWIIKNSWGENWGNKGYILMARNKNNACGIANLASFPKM

Compound | Sel cat. L (cathepsin L) | Sel cat. S (cathepsin S) | Sel cat. B (cathepsin B) | Sel cat. K (cathepsin K)
NC(=O)C(=O)C(Cc1ccccc1)NC(=O)c1cccnc1-n1ccc(-c2cccc(OC(F)(F)F)c2)n1 (stereo not drawn) [Example 168, N-[3-Amino-2,3-dioxo-1-(phenylmethyl)propyl]-2-(3-{3-[(trifluoromethyl)oxy]phenyl}-1H-pyrazol-1-yl)pyridine-3-carboxamide] | ++ (++ means a Ki(cathepsin L)/Ki(calpain) ratio of ≧50) | ++ (++ means a Ki(cathepsin S)/Ki(calpain) ratio of ≧100) | + (+ means 10≦Ki(cathepsin B)/Ki(calpain)<30) | + (+ means 10≦Ki(cathepsin K)/Ki(calpain)<30)
NC(=O)C(=O)C(Cc1ccccc1)NC(=O)c1cccnc1-n1ccc(-c2c(F)cc(F)cc2F)n1 (stereo not drawn) [Example 116, N-[3-Amino-2,3-dioxo-1-(phenylmethyl)propyl]-2-[3-(2,4,6-trifluorophenyl)-1H-pyrazol-1-yl]pyridine-3-carboxamide] | ++ (++ means a Ki(cathepsin L)/Ki(calpain) ratio of ≧50) | ++ (++ means a Ki(cathepsin S)/Ki(calpain) ratio of ≧100) | ++ (++ means a Ki(cathepsin B)/Ki(calpain) ratio of ≧30) | + (+ means 10≦Ki(cathepsin K)/Ki(calpain)<30)
NC(=O)C(=O)C(Cc1ccccc1)NC(=O)c1cccnc1-n1ccc(C23CC4CC(CC(C4)C2)C3)n1 (stereo not drawn) [Example 193, N-[3-Amino-2,3-dioxo-1-(phenylmethyl)propyl]-2-(3-tricyclo[3.3.1.1^3,7]dec-1-yl-1H-pyrazol-1-yl)pyridine-3-carboxamide] | ++ (++ means a Ki(cathepsin L)/Ki(calpain) ratio of ≧50) | ++ (++ means a Ki(cathepsin S)/Ki(calpain) ratio of ≧100) | ++ (++ means a Ki(cathepsin B)/Ki(calpain) ratio of ≧30) | ++ (++ means a Ki(cathepsin K)/Ki(calpain) ratio of ≧30)
NC(=O)C(=O)C(Cc1ccccc1)NC(=O)c1cccnc1-n1cc2c(n1)-c1ccccc1SC2 (stereo not drawn) [Example 173, N-[3-Amino-2,3-dioxo-1-(phenylmethyl)propyl]-2-thiochromeno[4,3-c]pyrazol-2(4H)-ylpyridine-3-carboxamide] | ++ (++ means a Ki(cathepsin L)/Ki(calpain) ratio of ≧50) | ++ (++ means a Ki(cathepsin S)/Ki(calpain) ratio of ≧100) | + (+ means 10≦Ki(cathepsin B)/Ki(calpain)<30) | + (+ means 10≦Ki(cathepsin K)/Ki(calpain)<30)
COc1ccc(CC(NC(=O)c2cccnc2-n2ccc(-c3ccc(F)cc3OC)n2)C(=O)C(N)=O)cc1 (stereo not drawn) [Example 136, N-(3-Amino-1-{[4-(methyloxy)phenyl]methyl}-2,3-dioxopropyl)-2-{3-[4-fluoro-2-(methyloxy)phenyl]-1H-pyrazol-1-yl}pyridine-3-carboxamide] | ++ (++ means a Ki(cathepsin L)/Ki(calpain) ratio of ≧50) | ++ (++ means a Ki(cathepsin S)/Ki(calpain) ratio of ≧100) | ++ (++ means a Ki(cathepsin B)/Ki(calpain) ratio of ≧30) | ++ (++ means a Ki(cathepsin K)/Ki(calpain) ratio of ≧30)
NC(=O)C(=O)C(Cc1ccccc1)NC(=O)c1cccnc1-n1ccc(-c2ccccc2C(F)(F)F)n1 (stereo not drawn) [Example 72, N-(3-Amino-1-benzyl-2,3-dioxopropyl)-2-{3-[2-(trifluoromethyl)phenyl]-1H-pyrazol-1-yl}nicotinamide] | + (+ means 30≦Ki(cathepsin L)/Ki(calpain)<50) | ++ (++ means a Ki(cathepsin S)/Ki(calpain) ratio of ≧100) | + (+ means 10≦Ki(cathepsin B)/Ki(calpain)<30) | + (+ means 10≦Ki(cathepsin K)/Ki(calpain)<30)
NC(=O)C(=O)C(Cc1ccccc1)NC(=O)c1cccnc1-n1cc2c(n1)-c1cccc(Cl)c1OC2 (stereo not drawn) [Example 175, N-[3-Amino-2,3-dioxo-1-(phenylmethyl)propyl]-2-(6-chlorochromeno[4,3-c]pyrazol-2(4H)-yl)pyridine-3-carboxamide] | ++ (++ means a Ki(cathepsin L)/Ki(calpain) ratio of ≧50) | ++ (++ means a Ki(cathepsin S)/Ki(calpain) ratio of ≧100) | ++ (++ means a Ki(cathepsin B)/Ki(calpain) ratio of ≧30) | ++ (++ means a Ki(cathepsin K)/Ki(calpain) ratio of ≧30)
NC(=O)C(=O)C(Cc1ccccc1)NC(=O)c1cccnc1-n1cc2c(n1)-c1cc(Cl)ccc1OC2 (stereo not drawn) [Example 140, N-[3-Amino-2,3-dioxo-1-(phenylmethyl)propyl]-2-(8-chlorochromeno[4,3-c]pyrazol-2(4H)-yl)pyridine-3-carboxamide] | ++ (++ means a Ki(cathepsin L)/Ki(calpain) ratio of ≧50) | ++ (++ means a Ki(cathepsin S)/Ki(calpain) ratio of ≧100) | + (+ means 10≦Ki(cathepsin B)/Ki(calpain)<30) | ++ (++ means a Ki(cathepsin K)/Ki(calpain) ratio of ≧30)
NC(=O)C(=O)C(Cc1ccc(OC(F)(F)F)cc1)NC(=O)c1cccnc1-n1ccc(-c2ccc(F)cc2)n1 (stereo not drawn) [Example 132, N-[3-Amino-2,3-dioxo-1-({4-[(trifluoromethyl)oxy]phenyl}methyl)propyl]-2-[3-(4-fluorophenyl)-1H-pyrazol-1-yl]pyridine-3-carboxamide] | ++ (++ means a Ki(cathepsin L)/Ki(calpain) ratio of ≧50) | ++ (++ means a Ki(cathepsin S)/Ki(calpain) ratio of ≧100) | + (+ means 10≦Ki(cathepsin B)/Ki(calpain)<30) | ++ (++ means a Ki(cathepsin K)/Ki(calpain) ratio of ≧30)
COc1ccc2c(c1)OCc1cn(-c3ncccc3C(=O)NC(Cc3ccccc3)C(=O)C(N)=O)nc1-2 (stereo not drawn) [Example 142, N-[3-Amino-2,3-dioxo-1-(phenylmethyl)propyl]-2-[7-(methyloxy)chromeno[4,3-c]pyrazol-2(4H)-yl]pyridine-3-carboxamide] | ++ (++ means a Ki(cathepsin L)/Ki(calpain) ratio of ≧50) | ++ (++ means a Ki(cathepsin S)/Ki(calpain) ratio of ≧100) | + (+ means 10≦Ki(cathepsin B)/Ki(calpain)<30) | + (+ means 10≦Ki(cathepsin K)/Ki(calpain)<30)
NC(=O)C(=O)C(Cc1ccccc1)NC(=O)c1cccnc1-n1ccc(-c2ccc(C(F)(F)F)cc2)n1 (stereo not drawn) [Example 60, N-(3-Amino-1-benzyl-2,3-dioxopropyl)-2-{3-[4-(trifluoromethyl)phenyl]-1H-pyrazol-1-yl}nicotinamide] | ++ (++ means a Ki(cathepsin L)/Ki(calpain) ratio of ≧50) | + (+ means 50≦Ki(cathepsin S)/Ki(calpain)<100) | + (+ means 10≦Ki(cathepsin B)/Ki(calpain)<30) | + (+ means 10≦Ki(cathepsin K)/Ki(calpain)<30)
COc1ccccc1-c1ccn(-c2ncccc2C(=O)NC(Cc2ccccc2)C(=O)C(N)=O)n1 (stereo not drawn) [Example 90, N-[3-Amino-2,3-dioxo-1-(phenylmethyl)propyl]-2-{3-[2-(methyloxy)phenyl]-1H-pyrazol-1-yl}pyridine-3-carboxamide] | ++ (++ means a Ki(cathepsin L)/Ki(calpain) ratio of ≧50) | ++ (++ means a Ki(cathepsin S)/Ki(calpain) ratio of ≧100) | ++ (++ means a Ki(cathepsin B)/Ki(calpain) ratio of ≧30) | + (+ means 10≦Ki(cathepsin K)/Ki(calpain)<30)
NC(=O)C(=O)C(Cc1ccccc1)NC(=O)c1cccnc1-n1ccc(-c2cccc3cccnc23)n1 (stereo not drawn) [Example 160, N-[3-amino-2,3-dioxo-1-(phenylmethyl)propyl]-2-(3-quinolin-8-yl-1H-pyrazol-1-yl)pyridine-3-carboxamide] | ++ (++ means a Ki(cathepsin L)/Ki(calpain) ratio of ≧50) | ++ (++ means a Ki(cathepsin S)/Ki(calpain) ratio of ≧100) | ++ (++ means a Ki(cathepsin B)/Ki(calpain) ratio of ≧30) | ++ (++ means a Ki(cathepsin K)/Ki(calpain) ratio of ≧30)
NC(=O)C(=O)C(Cc1ccccc1)NC(=O)c1cccnc1-n1ccc(-c2sccc2Cl)n1 (stereo not drawn) [Example 109, N-[3-Amino-2,3-dioxo-1-(phenylmethyl)propyl]-2-[3-(3-chloro-2-thienyl)-1H-pyrazol-1-yl]pyridine-3-carboxamide] | ++ (++ means a Ki(cathepsin L)/Ki(calpain) ratio of ≧50) | ++ (++ means a Ki(cathepsin S)/Ki(calpain) ratio of ≧100) | ++ (++ means a Ki(cathepsin B)/Ki(calpain) ratio of ≧30) | ++ (++ means a Ki(cathepsin K)/Ki(calpain) ratio of ≧30)
NC(=O)C(=O)C(Cc1ccccc1)NC(=O)c1cccnc1-n1ccc(-c2cccc3ccccc23)n1 (stereo not drawn) [Example 110, N-[3-Amino-2,3-dioxo-1-(phenylmethyl)propyl]-2-(3-naphthalen-1-yl-1H-pyrazol-1-yl)pyridine-3-carboxamide] | ++ (++ means a Ki(cathepsin L)/Ki(calpain) ratio of ≧50) | ++ (++ means a Ki(cathepsin S)/Ki(calpain) ratio of ≧100) | ++ (++ means a Ki(cathepsin B)/Ki(calpain) ratio of ≧30) | ++ (++ means a Ki(cathepsin K)/Ki(calpain) ratio of ≧30)
